# Data from ChEMBL document CHEMBL1131851, “Synthesis and fluorescence properties of Oregon Green 514 labeled peptides” (Bioorg Med Chem Lett, 1999).
# Assay: Acid dissociation constant of the compound.
# Format: ADME
row,pKa,Compound
1,4.8,O=C(O)CSc1c(F)c(F)c(C(=O)O)c(-c2c3cc(F)c(=O)cc-3oc3cc(O)c(F)cc23)c1F
2,6.4,O=C(O)c1ccc(C(=O)O)c(-c2c3ccc(=O)cc-3oc3cc(O)ccc23)c1 [6-Carboxyfluorescein]
